Data set [1] deals with Candida albicans. Put plainly: Antimicrobial activity against Candida albicans ATCC 36082 incubated for 2 days at 35 degC by CLSI protocol based method. The data set is classed as functional. To be noted: ATCC 36082, 48 h.
The nature of data set [2]: Toxicity in human erythrocytes assessed as induction of hemolysis incubated for 18 hrs. The format is cell-based, Erythrocyte.
Data set [3] in a line: Toxicity in human erythrocytes assessed as induction of hemolysis at 15 uM incubated for 18 hrs. To be noted: read-out: Activity. The data set is classed as cell-based, Erythrocyte.
A short description of data set [4]: Induction of potassium influx in sterol-free and cholesterol and ergosterol-containing POPC liposomes at 32 uM by BCECF dye based fluorimetric assay. The data set is classed as physicochemical.

In brackets after ≈: the same amount, converted by molar mass.

With `C[C@@H]1[C@H](O)[C@@H](C)/C=C/C=C/C=C/C=C/C=C/C=C/C=C/[C@H](O[C@@H]2O[C@H](C)[C@@H](O)[C@H](N)[C@@H]2O)C[C@@H]2O[C@](O)(C[C@@H](O)C[C@@H](O)[C@H](O)C(=O)C[C@@H](O)C[C@@H](O)CC(=O)O[C@H]1C)C[C@H](O)[C@H]2C(=O)O`, the MIC in data set [1] turned out to be 2 µM (≈ 1.88 µg/mL). The HC50 at 18 h in data set [2] is greater than 15 µM. The hemolysis at 18 h, 15 µM in data set [3] is 10%. Also, the Activity result in data set [4] is “Not Active”.
In data set [1], `C[C@@H]1[C@H](O)[C@@H](C)/C=C/C=C/C=C/C=C/C=C/C=C/C=C/[C@H](O[C@@H]2O[C@H](C)[C@@H](O)[C@H](N)[C@@H]2O)C[C@@H]2O[C@](O)(C[C@@H](O)C[C@@H](O)[C@H](O)[C@H](O)C[C@@H](O)C[C@@H](O)CC(=O)O[C@H]1C)C[C@H](O)[C@H]2C(=O)O` yielded an MIC of 4 µM (≈ 3.76 µg/mL). Further, the HC50 at 18 h in data set [2] was 5.4 µM. In data set [4], the Activity result is on record as “Not Active”.
Taken in the same sequence, the figures for `C[C@@H]1[C@H](O)[C@@H](C)/C=C/C=C/C=C/C=C/C=C/C=C/C=C/[C@H](O[C@@H]2O[C@H](C)[C@@H](O)[C@H](N)[C@@H]2O)C[C@@H]2O[C@](O)(C[C@@H](O)C[C@@H](O)[C@H](O)[C@@H](O)C[C@@H](O)C[C@@H](O)CC(=O)O[C@H]1C)C[C@H](O)[C@H]2C(=O)O` were 1 µM (≈ 0.94 µg/mL), 6.9 µM and “Not Active”.
`C[C@@H]1[C@H](O)[C@@H](C)/C=C/C=C/C=C/C=C/C=C/C=C/C=C/[C@H](O[C@@H]2O[C@H](C)[C@@H](O)[C@H](N)[C@@H]2O)C[C@@H]2O[C@](O)(C[C@@H](O)C[C@@H](O)[C@H](O)CC[C@@H](O)C[C@@H](O)CC(=O)O[C@H]1C)C[C@H](O)[C@H]2C(=O)O` [AMPHOTERICIN B] gave a minimal inhibitory concentration (MIC) in data set [1] of 0.25 µM (≈ 0.231 µg/mL). Also, the HC50 at 18 h in data set [2] was found to be 3.2 µM. Besides, in data set [4], the outcome was Active.

(Values after ChEMBL document CHEMBL3603791, “Role of polyol moiety of amphotericin B in ion channel formation and sterol selectivity in bilayer membrane” (Bioorg Med Chem, 2015).)
